Test results from US20140005163A1 (NOVARTIS AG, priority 2010, published 2014).

Legend:
mTOR = biological target: T1, mTOR (Homo sapiens, UniProt P42345); assay: Biochemical assay for m-TOR by TR-FRET; settings: 8 μM ATP, 400 nM GFP-4EBP1, 0.5 nM mTOR
T1 construct: purchased Invitrogen Corporation (Carlsbad/CA, USA) PV4753
Summary of the method: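 Steps: ATP (8 μM final) plus GFP-4EBP1 (400 nM final) combined with mTOR (0.5 nM final), incubated at rt; buffer HEPES pH 7.5 with 10 mM MnCl2, NaCl, EGTA, DTT. Then stopped with EDTA/Tb3+-anti-p4EBP1 pT46 Ab (0.5 nM). Plates read after 15 min.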

PI3K delta = biological target: T2, PI3K delta (Homo sapiens, UniProt O00329); assay: PI3K delta kinase assay (Kinase-Glo luminescence); assay type: biochemical
T2 construct: for the full-length p110-d subunit are generated and fused by overlapping PCR; p85(iSH2) fusion partner (see partner chain) (N); His tag (C); made in house; host or cells: baculovirus; Tn5 (Trichoplusia ni) or TiniPro insect cells
T2 sequence (O00329 with tags, fused parts or gaps limits assumed): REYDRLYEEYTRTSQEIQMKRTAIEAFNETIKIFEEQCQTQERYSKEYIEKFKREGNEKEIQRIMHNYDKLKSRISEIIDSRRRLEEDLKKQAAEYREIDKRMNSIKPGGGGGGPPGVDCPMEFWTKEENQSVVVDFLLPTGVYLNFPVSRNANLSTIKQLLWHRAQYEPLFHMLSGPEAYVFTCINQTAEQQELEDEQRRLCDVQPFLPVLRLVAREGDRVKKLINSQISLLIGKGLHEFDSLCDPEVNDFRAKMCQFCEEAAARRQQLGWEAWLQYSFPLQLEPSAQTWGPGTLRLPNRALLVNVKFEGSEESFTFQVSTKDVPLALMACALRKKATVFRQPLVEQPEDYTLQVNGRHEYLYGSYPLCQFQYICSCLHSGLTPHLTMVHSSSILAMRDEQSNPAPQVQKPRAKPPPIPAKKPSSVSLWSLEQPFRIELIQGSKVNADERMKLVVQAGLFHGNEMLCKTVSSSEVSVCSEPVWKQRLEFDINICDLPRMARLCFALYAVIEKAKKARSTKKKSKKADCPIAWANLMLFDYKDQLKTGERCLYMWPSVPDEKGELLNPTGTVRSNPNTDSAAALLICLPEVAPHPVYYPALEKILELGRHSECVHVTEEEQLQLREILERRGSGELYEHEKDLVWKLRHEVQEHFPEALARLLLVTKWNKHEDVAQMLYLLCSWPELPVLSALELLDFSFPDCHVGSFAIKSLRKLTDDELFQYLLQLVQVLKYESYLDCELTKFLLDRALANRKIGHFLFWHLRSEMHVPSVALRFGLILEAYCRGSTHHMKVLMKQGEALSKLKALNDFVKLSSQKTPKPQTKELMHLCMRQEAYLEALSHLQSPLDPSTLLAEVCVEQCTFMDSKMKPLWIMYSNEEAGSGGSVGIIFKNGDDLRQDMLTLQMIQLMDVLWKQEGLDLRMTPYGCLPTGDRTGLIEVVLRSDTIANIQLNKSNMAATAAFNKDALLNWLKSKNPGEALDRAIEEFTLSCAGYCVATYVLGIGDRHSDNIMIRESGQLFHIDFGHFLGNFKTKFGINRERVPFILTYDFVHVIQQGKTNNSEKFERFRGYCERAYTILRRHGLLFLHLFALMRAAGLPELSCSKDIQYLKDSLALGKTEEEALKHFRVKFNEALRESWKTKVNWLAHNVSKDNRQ
Summary of the method: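 Construct BV-1060, p85 iSH2–linker–full-length p110δ, His-tagged, at 10 nM, with 1 μM ATP and 10 μg/mL phosphatidylinositol in pH 7.5 Tris, 3 mM MgCl2, 50 mM NaCl, 0.05% CHAPS. Run 60 min at room temperature; remaining ATP read by Kinase-Glo luminescence; IC50 from 4-parameter logistic fit of 8 concentrations.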

PI3K alpha = biological target: T3, PI3K alpha (Homo sapiens, UniProt P42336); assay: PI3K alpha kinase assay (Kinase-Glo luminescence); assay type: biochemical
T3 construct: p85(iSH2) fusion partner (see partner chain) (N); His tag (C); made in house; host or cells: baculovirus; Tn5 (Trichoplusia ni) or TiniPro insect cells
T3 sequence (P42336 with tags, fused parts or gaps limits assumed): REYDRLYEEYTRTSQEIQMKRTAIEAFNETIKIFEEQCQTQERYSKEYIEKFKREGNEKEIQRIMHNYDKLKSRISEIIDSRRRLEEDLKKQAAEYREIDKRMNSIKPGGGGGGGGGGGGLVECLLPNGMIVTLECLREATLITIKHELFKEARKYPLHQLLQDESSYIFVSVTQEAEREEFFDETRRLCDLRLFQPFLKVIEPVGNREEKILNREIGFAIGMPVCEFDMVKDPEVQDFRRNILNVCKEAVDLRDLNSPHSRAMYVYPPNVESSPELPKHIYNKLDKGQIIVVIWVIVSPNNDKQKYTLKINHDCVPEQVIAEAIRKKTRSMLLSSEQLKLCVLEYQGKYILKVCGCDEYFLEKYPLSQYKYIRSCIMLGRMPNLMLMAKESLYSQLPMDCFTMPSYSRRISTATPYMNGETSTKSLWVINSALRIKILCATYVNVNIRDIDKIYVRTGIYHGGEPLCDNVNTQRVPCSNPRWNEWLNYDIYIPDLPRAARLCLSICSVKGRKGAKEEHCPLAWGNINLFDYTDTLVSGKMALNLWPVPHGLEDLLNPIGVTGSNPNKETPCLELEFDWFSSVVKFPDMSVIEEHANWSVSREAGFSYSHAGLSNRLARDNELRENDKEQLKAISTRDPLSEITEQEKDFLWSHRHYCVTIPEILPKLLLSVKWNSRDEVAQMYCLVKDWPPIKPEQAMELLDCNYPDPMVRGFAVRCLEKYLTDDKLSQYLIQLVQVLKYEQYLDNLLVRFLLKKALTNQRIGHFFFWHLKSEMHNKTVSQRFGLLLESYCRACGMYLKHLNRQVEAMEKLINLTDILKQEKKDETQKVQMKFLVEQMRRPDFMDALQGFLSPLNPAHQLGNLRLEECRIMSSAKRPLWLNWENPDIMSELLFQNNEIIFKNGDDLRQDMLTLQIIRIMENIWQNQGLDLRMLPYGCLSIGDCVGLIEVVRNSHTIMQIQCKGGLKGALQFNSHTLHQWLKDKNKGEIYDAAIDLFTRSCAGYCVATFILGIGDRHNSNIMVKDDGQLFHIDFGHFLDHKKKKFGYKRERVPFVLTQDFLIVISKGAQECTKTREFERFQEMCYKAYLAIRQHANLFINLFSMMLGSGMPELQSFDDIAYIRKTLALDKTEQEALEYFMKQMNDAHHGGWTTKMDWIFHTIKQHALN
Summary of the method: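 PI3K alpha at 10 nM with 1 μM ATP and 10 μg/mL phosphatidylinositol in 10 mM TRIS pH 7.5, 3 mM MgCl2, 50 mM NaCl, 0.05% CHAPS, 1 mM DTT, 60 min at room temperature. Remaining ATP read by Kinase-Glo luminescence. IC50 by 4-parameter fit over 8 concentrations.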

T1 sequence (P42345 1360-2549 limits assumed): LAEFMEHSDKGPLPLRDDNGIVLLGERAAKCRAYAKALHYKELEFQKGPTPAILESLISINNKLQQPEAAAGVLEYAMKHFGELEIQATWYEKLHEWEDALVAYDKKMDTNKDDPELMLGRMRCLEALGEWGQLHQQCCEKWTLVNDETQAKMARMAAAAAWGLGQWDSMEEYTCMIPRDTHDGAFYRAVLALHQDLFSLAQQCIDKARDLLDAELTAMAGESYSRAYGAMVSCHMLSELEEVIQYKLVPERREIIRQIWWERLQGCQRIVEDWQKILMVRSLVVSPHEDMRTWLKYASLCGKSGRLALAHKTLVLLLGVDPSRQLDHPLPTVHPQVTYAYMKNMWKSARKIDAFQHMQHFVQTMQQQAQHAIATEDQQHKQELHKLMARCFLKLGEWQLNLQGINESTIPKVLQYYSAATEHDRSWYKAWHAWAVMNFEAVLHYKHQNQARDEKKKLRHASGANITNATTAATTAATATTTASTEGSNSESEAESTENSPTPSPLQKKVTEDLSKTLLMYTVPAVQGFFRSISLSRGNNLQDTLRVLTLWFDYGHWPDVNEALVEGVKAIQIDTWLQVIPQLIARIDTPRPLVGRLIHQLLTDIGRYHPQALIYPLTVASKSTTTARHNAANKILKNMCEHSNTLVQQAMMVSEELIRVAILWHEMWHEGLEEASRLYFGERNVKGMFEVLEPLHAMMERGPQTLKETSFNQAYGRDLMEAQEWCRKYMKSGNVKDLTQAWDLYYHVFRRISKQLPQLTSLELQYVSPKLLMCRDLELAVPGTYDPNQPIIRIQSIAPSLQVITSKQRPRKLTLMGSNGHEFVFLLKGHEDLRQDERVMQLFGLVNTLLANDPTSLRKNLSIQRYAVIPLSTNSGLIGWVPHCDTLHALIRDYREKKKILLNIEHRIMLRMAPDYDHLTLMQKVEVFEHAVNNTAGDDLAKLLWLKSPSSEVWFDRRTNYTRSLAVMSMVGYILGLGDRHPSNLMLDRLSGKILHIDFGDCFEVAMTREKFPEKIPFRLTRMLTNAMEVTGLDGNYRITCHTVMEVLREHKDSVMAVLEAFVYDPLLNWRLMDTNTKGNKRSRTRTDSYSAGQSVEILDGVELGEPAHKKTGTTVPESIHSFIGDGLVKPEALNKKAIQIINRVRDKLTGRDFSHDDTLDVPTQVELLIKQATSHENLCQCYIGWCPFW

IC50 (mTOR) [nM]	IC50 (PI3K delta) [nM]	IC50 (PI3K alpha) [nM]	Compound
8	8	15	CCOc1cc(-c2ccc3ncc4c(c3c2)n(-c2cn(C)nc2C)c(=O)n4C)cnc1CC [Example 187, 1-(1,3-Dimethyl-1H-pyrazol-4-yl)-8-(5-ethoxy-6-ethyl-pyridin-3-yl)-3-methyl-1,3-dihydro-imidazo[4,5-c]quinolin-2-one]
34	7	26	CCNc1ncc(-c2ccc3ncc4c(c3c2)n(-c2cn(C)nc2C)c(=O)n4C)cc1COC [Example 206.1, 1-(1,3-Dimethyl-1H-pyrazol-4-yl)-8-(6-ethylamino-5-methoxymethyl-pyridin-3-yl)-3-methyl-1,3-dihydro-imidazo[4,5-c]quinolin-2-one]
20	48	34	CCN(C)c1ccc(-c2ccc3ncc4c(c3c2)n(-c2cn(C)nc2C)c(=O)n4C)cn1 [Example 98.1, 1-(1,3-Dimethyl-1H-pyrazol-4-yl)-8-[6-(ethyl-methyl-amino)-pyridin-3-yl]-3-methyl-1,3-dihydro-imidazo[4,5-c]quinolin-2-one]
32	6	14	Cc1nn(C)cc1-n1c(=O)n(C)c2cnc3ccc(-c4cncc(C5(C#N)CCC5)c4)cc3c21 [Example 221.1, 1-{5-[1-(1,3-Dimethyl-1H-pyrazol-4-yl)-3-methyl-2-oxo-2,3-dihydro-1H-imidazo[4,5-c]quinolin-8-yl]-pyridin-3-yl}-cyclobutanecarbonitrile]
4	8	44	CNc1cc(-c2ccc3ncc4c(c3c2)n(-c2cn(C(C)C)nc2C)c(=O)n4C)cnc1CO [Example 158.2, 8-(6-Hydroxymethyl-5-methylamino-pyridin-3-yl)-1-(1-isopropyl-3-methyl-1H-pyrazol-4-yl)-3-methyl-1,3-dihydro-imidazo[4,5-c]quinolin-2-one]
26	9	5	COCCOc1cncc(-c2ccc3ncc4c(c3c2)n(-c2cn(C)nc2Cl)c(=O)n4C)c1 [Example 59.2, 1-(3-Chloro-1-methyl-1H-pyrazol-4-yl)-8-[5-(2-methoxy-ethoxy)-pyridin-3-yl]-3-methyl-1,3-dihydro-imidazo[4,5-c]quinolin-2-one]
4	37	23	Cc1nn(C)cc1-n1c(=O)n(C)c2cnc3ccc(-c4cncc(N(C)C(C)C)c4)cc3c21 [Example 173, 1-(1,3-Dimethyl-1H-pyrazol-4-yl)-8-[5-(isopropyl-methyl-amino)-pyridin-3-yl]-3-methyl-1,3-dihydro-imidazo[4,5-c]quinolin-2-one]
5	3	6	Cc1ncc(-c2ccc3ncc4c(c3c2)n(-c2cn(C)nc2C)c(=O)n4C)cc1NS(C)(=O)=O [Example 76, N-{5-[1-(1,3-Dimethyl-1H-pyrazol-4-yl)-3-methyl-2-oxo-2,3-dihydro-1H-imidazo[4,5-c]quinolin-8-yl]-2-methyl-pyridin-3-yl}-methanesulfonamide]
24	4	74	CCn1cc(-n2c(=O)n(C)c3cnc4ccc(-c5cncc(N)c5)cc4c32)c(C)n1 [Example 45.2, 8-(5-Amino-pyridin-3-yl)-1-(1-ethyl-3-methyl-1H-pyrazol-4-yl)-3-methyl-1,3-dihydro-imidazo[4,5-c]quinolin-2-one]
95	21	26	Cc1nn(C)c(C)c1-n1c(=O)n(C)c2cnc3ccc(-c4cnc(N)c(Cl)c4)cc3c21 [Example 148.1, 8-(6-Amino-5-chloro-pyridin-3-yl)-3-methyl-1-(1,3,5-trimethyl-1H-pyrazol-4-yl)-1,3-dihydro-imidazo[4,5-c]quinolin-2-one]
5	3	5	Cn1cc(-n2c(=O)n(C)c3cnc4ccc(-c5cncc(C(C)(C)C#N)c5)cc4c32)c(Cl)n1 [Example 220.3, 2-{5-[1-(3-Chloro-1-methyl-1H-pyrazol-4-yl)-3-methyl-2-oxo-2,3-dihydro-1H-imidazo[4,5-c]quinolin-8-yl]-pyridin-3-yl}-2-methyl-propionitrile]
51	26	28	CNC(=O)c1cc(-c2ccc3ncc4c(c3c2)n(-c2cn(C)nc2C)c(=O)n4C)cnc1OC [Example 125.1, 5-[1-(1,3-Dimethyl-1H-pyrazol-4-yl)-3-methyl-2-oxo-2,3-dihydro-1H-imidazo[4,5-c]quinolin-8-yl]-2-methoxy-N-methyl-nicotinamide]
363	50	48	CCOc1ccc(-c2ccc3ncc4c(c3c2)n(-c2c(C)nn(C)c2C)c(=O)n4C)cc1OCC [Example 27.2, 8-(3,4-Diethoxy-phenyl)-3-methyl-1-(1,3,5-trimethyl-1H-pyrazol-4-yl)-1,3-dihydro-imidazo[4,5-c]quinolin-2-one]
6	7	8	Cc1nn(C)cc1-n1c(=O)n(C)c2cnc3ccc(-c4cnc5ccccc5c4)cc3c21 [Example 38, 1-(1,3-Dimethyl-1H-pyrazol-4-yl)-3-methyl-8-quinolin-3-yl-1,3-dihydro-imidazo[4,5-c]quinolin-2-one]
26	27	24	CCOc1ccc(-c2ccc3ncc4c(c3c2)n(-c2cn(CC)nc2C)c(=O)n4C)cc1OC [Example 29.1, 8-(4-Ethoxy-3-methoxy-phenyl)-1-(1-ethyl-3-methyl-1H-pyrazol-4-yl)-3-methyl-1,3-dihydro-imidazo[4,5-c]quinolin-2-one]
306	20	92	CCOc1ncc(-c2ccc3ncc4c(c3c2)n(-c2cn(C)nc2C)c(=O)n4C)cc1N(C)C(C)=O [Example 63, N-{5-[1-(1,3-Dimethyl-1H-pyrazol-4-yl)-3-methyl-2-oxo-2,3-dihydro-1H-imidazo[4,5-c]quinolin-8-yl]-2-ethoxy-pyridin-3-yl}-N-methyl-acetamide]
37	41	10	Cc1cncc(-c2ccc3ncc4c(c3c2)n(-c2cn(C)nc2C)c(=O)n4C)c1 [Example 24, 1-(1,3-Dimethyl-1H-pyrazol-4-yl)-3-methyl-8-(5-methyl-pyridin-3-yl)-1,3-dihydro-imidazo[4,5-c]quinolin-2-one]
373	691	462	CO[C@@H]1CCN(c2ccc(-c3ccc4ncc5c(c4c3)n(-c3cn(C)nc3C)c(=O)n5C)cn2)C1 [Example 213.1, 1-(1,3-Dimethyl-1H-pyrazol-4-yl)-8-[6-((R)-3-methoxy-pyrrolidin-1-yl)-pyridin-3-yl]-3-methyl-1,3-dihydro-imidazo[4,5-c]quinolin-2-one]
3	14	13	CCNc1cc(-c2ccc3ncc4c(c3c2)n(-c2cn(C)nc2C)c(=O)n4C)cnc1CO [Example 155.1, 1-(1,3-Dimethyl-1H-pyrazol-4-yl)-8-(5-ethylamino-6-hydroxymethyl-pyridin-3-yl)-3-methyl-1,3-dihydro-imidazo[4,5-c]quinolin-2-one]
	57	186	CCNc1ncc(-c2ccc3ncc4c(c3c2)n(-c2c(C)nn(C)c2C)c(=O)n4C)cc1COC [Example 206.2, 8-(6-Ethylamino-5-methoxymethyl-pyridin-3-yl)-3-methyl-1-(1,3,5-trimethyl-1H-pyrazol-4-yl)-1,3-dihydro-imidazo[4,5-c]quinolin-2-one]
< 3	4	9	CCc1ncc(-c2ccc3ncc4c(c3c2)n(-c2cn(C)nc2C)c(=O)n4C)cc1O [Example 188, 1-(1,3-Dimethyl-1H-pyrazol-4-yl)-8-(6-ethyl-5-hydroxy-pyridin-3-yl)-3-methyl-1,3-dihydro-imidazo[4,5-c]quinolin-2-one]
9	10	17	COc1ccc(-c2ccc3ncc4c(c3c2)n(-c2cn(C)nc2C)c(=O)n4C)cn1 [Example 2.5, 1-(1,3-Dimethyl-1H-pyrazol-4-yl)-8-(6-methoxy-pyridin-3-yl)-3-methyl-1,3-dihydro-imidazo[4,5-c]quinolin-2-one]
10	11	8	CCn1cc(-n2c(=O)n(C)c3cnc4ccc(-c5ccc(OC)c(OC)c5)cc4c32)c(C)n1 [Example 1.6, 8-(3,4-Dimethoxy-phenyl)-1-(1-ethyl-3-methyl-1H-pyrazol-4-yl)-3-methyl-1,3-dihydro-imidazo[4,5-c]quinolin-2-one]
23	43	61	CCOc1ccc(-c2ccc3ncc4c(c3c2)n(-c2cn(C(C)C)nc2C)c(=O)n4C)cn1 [Example 3.7, 8-(6-Ethoxy-pyridin-3-yl)-1-(1-isopropyl-3-methyl-1H-pyrazol-4-yl)-3-methyl-1,3-dihydro-imidazo[4,5-c]quinolin-2-one]
